In patent US20240336661A1, “PEPTIDES DERIVED FROM RUMINOCOCCUS TORQUES” (University of Copenhagen, priority 2021, published 2024):
Values belong to the substance of their own block, whether it stands above or below them.

Legend:
[1] = tested on: human visceral white pre-adipocytes; assay: Thermogenesis/browning gene expression in human visceral white pre-adipocytes (q-PCR); assay type: cell-based; conditions: 15 nM, 14 days of differentiation
Method: (§1) FIG. 9. Exposure of recombinant RUCILP2 to human visceral white pre-adipocytes or murine inguinal white adipocytes causes up-regulation of the expression of genes involved in thermogenesis/browning. Upper panel: mRNA expression level of adipocyte differentiation marker genes including Ucp1, Pparγ1, Dio2, and Cox2 and brown adipocyte-selective genes including Cpt1b and Ebf2 on human white preadipocytes (HWP). Human white preadipocytes were cultured until 80% confluent and switched into differentiation media (with 0.3 ml/ml fetal calf serum, 8 ug/ml d-biotin, 0.5 ug/ml insulin, 400 ng/ml dexamethasone). The differentiation process to mature adipocytes was completed after 12-14 days. The treatment of RUCILP2 started from the third day of differentiation. Cells were harvested after 14 days of differentiation and the gene expressions were quantified by q-PCR. […] Statistical significance was determined by unpaired two-tailed Student's t test. *, p<0.05 vs 0 nM RUCILP2.
(§2) FIG. 28. […] Cells were harvested after 14 days of differentiation and the indicated genes were quantified by q-PCR. […] Cells were harvested after 6 days of differentiation and thermogenesis gene were quantified by q-PCR. […] Cells were harvested after 4 days of differentiation and expression of myogenesis genes were quantified by q-PCR. […] Statistical significance was determined by unpaired two-tailed Student's t test, *, p<0.05 […]

[2] = tested on: murine C2C12 myoblasts; assay: Myotube formation and myogenesis gene expression in C2C12 myoblasts; assay type: cell-based, mouse
Method: FIG. 12. […] The C2C12 myotubes were treated with indicated doses of RUCILP2 overnight and myotube images were collected at magnification, ×10.
FIG. 28. […] White preadipocytes from human visceral fat (C-12732, PromoCell) were cultured until 80% confluent and switched into differentiation media (with 0.3 ml/ml of fetal calf serum (FCS), 8 ug/ml of d-biotin, 0.5ug/ml of insulin, 400 ng/ml of dexamethasone) in the presence of 15 nM of 21-AABP2. The differentiation process to mature adipocytes was completed after 14 days. Cells were harvested after 14 days of differentiation and the indicated genes were quantified by q-PCR. Inguinal fat tissues from 6-week-old wild-type C57BL/6J female mice were dissected and washed with PBS, minced and digested for 1 hour at 37° C. in PBS containing 10 mM CaCl2, 2.4 U/ml dispase II (Roche) and 10 mg/ml collagenase D (Roche). After adding warm DMEM/F12 (1:1) with 10% FCS, digested tissue was filtered through a […] cell strainer and centrifuged at 600×g for 10 minutes. Pellet was resuspended by 40 ml DMEM/F12 (1:1) with 10% FCS and filtered through a […] cell strainer followed by centrifugation at 600×g for 10 minutes. Pelleted inguinal stromal vascular cells were grown to confluence and split onto 12-well plates. The cells were induced to differentiate by treatment with […], 0.5 mM isobutyl methyl xanthine for 2 days. After that, cells were maintained in […] for 4 days with medium change every other day. The cells were treated with 15 nM of 21-AABP2 every other day during 6 days of differentiation. Cells were harvested after 6 days of differentiation and thermogenesis gene were quantified by q-PCR. C2C12 myoblasts (CRL-1772, ATCC) were cultured until 80% confluent and switched into differentiation media (with 2% horse serum). The treatment with 21-AABP2 started from the second day of differentiation. Cells were harvested after 4 days of differentiation and expression of myogenesis genes were quantified by q-PCR. Data are presented as mean+/−SEM of one representative experiment done in biological triplicates. Statistical significance was determined by unpaired two-tailed Student's t test, *, p<0.05
FIG. 29. […] Representative images of myoblasts (CRL-1772, ATCC) at 24h of differentiation in the presence of phosphate buffered saline (PBS, blank) or 21-AABP2 (15 nM). Presented images were from one representative experiment done in biological triplicates.
C2C12 cells were seeded on 12-well plates under DMEM/F-12 medium (Dulbecco's Modified Eagle Medium/Nutrient Mixture F-12, Fisher Scientific, #11524436), supplemented with 10% FBS (Fetal Bovine Serum, Fisher Scientific, #11550356) and 1% Penicillin-Streptomycin (Fisher Scientific, #11548876). Cell cultures were maintained in a humidified chamber with 5% CO2 at 37° C., and culture media were changed every 2-3 days.
At approximately 80% confluence, 10% fetal bovine serum was replaced with 2% horse serum to induce C2C12 myoblast cells to differentiate into myotubes. Twenty-four hours later (day 1 of the differentiation), the cells were treated with recombinant RUCILP2 or commercial recombinant irisin (Sigma, #SRP8039-10UG and Phoenix pharmaceuticals, #067-29A) or saline. For integrin inhibitor treatment, cells were treated with 10 μM of CycloRGDyK (Selleckchem, #S7844) for 10 minutes and washed with PBS before treated with recombinant RUCILP2 or commercial recombinant irisin or saline. At day three, the cells were refreshed with the same media as day one. After treatments for six hours on day 3, C2C12 cells were harvested for qRT-PCR analysis.
C2C12 myoblasts were cultured until 80% confluent and switched into differentiation media (with 2% horse serum). The treatment with 21-AABP2 started from the second day of differentiation. Representative images of the formed myotubes at 24h of differentiation in the presence of PBS (blank) or 21-AABP2 (15 nM) were captured. […]

[3] = tested on: rat insulinoma INS-1 cells; assay: Insulin release from INS-1 cells (ELISA); assay type: cell-based; conditions: 15 nM, 12 hours
Method: FIG. 30. Insulin release from the immortalized rat insulinoma INS-1 cells is increased following 21-AABP2 stimulation. INS-1 cells (832/13, ThermoFisher) were grown in RPM 1640 medium until a confluency of 70% was achieved and switched to RPM 1640 medium supplied with 15 nM of 21-AABP2 and incubated for 12 hours. The insulin concentration in the supernatant of cell culture medium was measured by MSD rat/mouse insulin ELISA kit. Data are presented as mean+/−SEM of one representative experiment done in biological triplicate. Statistical significance was determined by unpaired two-tailed Student's t test, *, p<0.05.
INS-1 cells were grown in RPMI 1640 medium (11875093, ThermoFisher Scientific) until a confluency of 70% was achieved and switched to RPMI 1640 medium supplied with 15 nM of 21-AABP2 and incubated for 12 hours. The insulin concentration in supernatant of cell culture medium was measured by MSD rat/mouse insulin ELISA kit (Merck Millipore).

[4] = tested on: murine inguinal white adipocytes; assay: Thermogenesis gene expression in murine inguinal adipocytes (q-PCR); assay type: cell-based, mouse; conditions: mouse inguinal preadipocytes, 15 nM every other day, 6 days
Method: as §1, §2

[5] = tested on: integrin receptor; assay: Integrin inhibitor pre-treatment in RUCILP2 cellular studies; assay type: cell-based; conditions: 10 μM for 10 minutes before RUCILP2
Method: Human white pre-adipocytes were cultured until 80% confluent and switched into differentiation media (with 0.3 ml/ml fetal calf serum, 8 μg/ml d-biotin, 0.5 μg/ml insulin, 400 ng/ml dexamethasone). The differentiation process to mature adipocytes was completed after 12-14 days. The treatment of RUCILP2 and irisin started from the third day of differentiation. For integrin complex inhibition, cells were treated with 10 μM of CycloRGDyK (Selleckchem, #S7844) for 10 minutes and washed with PBS before treated with RUCILP2 and irisin, respectively. Cells were harvested after 14 days of differentiation and thermogenesis gene were quantified by quantitative polymerase chain reaction (q-PCR).
Two days after induction, cells were switched to inducing medium in the presence of 15 nM recombinant RUCILP2, or commercial recombinant irisin (Sigma, #SRP8039-10UG and Phoenix pharmaceuticals, #067-29A), or saline for two days. After that, cells were maintained in 86 nM insulin and 1 nM T3 in the presence of indicated concentrations of recombinant RUCILP2 or commercial recombinant irisin, or saline for four days with medium change every other day. For inhibition of the integrin complex, cells were treated with 10 μM of cRGDyK for 10 minutes before treatment with recombinant RUCILP2 or commercial recombinant irisin or saline every other day during 6 days of differentiation. […]

Substance: 21-AABP2: 21 amino acid trypsin cleaved fragment of RUCILP2, made recombinantly in E. coli (AETTYFVEVTAVDAAGNESVK; Ruminococcus torques)
- expression of genes involved in thermogenesis/browning [1]: promotes expression
- myotube development ([2]; C2C12, 15 nM, 24h of differentiation): increases myotube development
- expression of genes involved in myogenesis (Mymk, Caveolin-3) ([2]; C2C12, harvested after 4 days of differentiation): stimulates expression
- insulin release [3]: increased
- expression of key genes regulating thermogenesis [4]: induces expression

- effect of pre-treatment on cellular effects of RUCILP2 [5]: blocked
Substance: CycloRGDyK
